{"source": "patent EP0174571A2", "about": "“Derivatives of amino acids, process for their preparation and pharmaceutical compositions” (BOEHRINGER INGELHEIM KG, priority 1984, dated 1986)", "key": {"narkotisierten Ratte": {"tested_on": "narkotisierten Ratte", "assay": "Blood pressure lowering in the anaesthetised rat after angiotensin I pressor stimulus", "assay_type": "in vivo", "conditions": "0,3 mg/kg i.v.; blood pressure raised beforehand with 0,1 mg/kg Angiotensin I i.v.; long lasting", "description": "So erzeugt das N-[N-(3-Phenyl-2-S-mercaptopropanoyl)-S-alanyl]-S-prolin an der narkotisierten Ratte in einer Dosierung von 0,3 mg/kg i.v. eine lang anhaltende Blutdrucksenkung von 67 %, wenn man vorher durch eine i.v.-Gabe von 0,1 mg/kg Angiotensin I den Blutdruck steigert."}, "Kaninchen": {"tested_on": "Kaninchen", "assay": "Blood pressure test in the rabbit (carotid artery)", "assay_type": "in vivo", "conditions": "1 mg/kg i.v.; blood pressure from the carotid", "description": "Am Kaninchen (Blutdruckversuch aus der Carotis) wird nach Gabe von 1 mg/kg der Substanz, i.v., eine Blutdrucksenkung von 37 mm beobachtet."}}, "data": [{"compound": "CC(NC(=O)C(S)Cc1ccccc1)C(=O)N1CCCC1C(=O)O", "note": "(centres unmarked) [Beispiel 1, N-[N-(3-Phenyl-2-S-mercatopropanoyl)-S-alanyl]-S-prolin]", "values": [{"measurement": "Blutdrucksenkung", "setting": "narkotisierten Ratte", "result": 67, "unit": "%"}, {"measurement": "Blutdrucksenkung", "setting": "Kaninchen", "result": 37, "unit": "mm"}]}]}
